Results taken from patent US20220354805A1, “Cannabidiol (CBD) as Chemical for Treating Aging-related Degenerative Diseases and Promoting Health Aging” (Hemix Biotech Limited, priority 2021, published 2022).

Legend:
[1] = test system: wildtype and LMNA^G609G/G609G MEFs; assay: Cell proliferation rate (population doubling level, PDL) of MEFs; type: cell-based, mouse
Excerpt: In the step of isolating mouse embryo fibroblasts (MEFs), heterozygous (LMNA^G609G/+) mice were set for mating. The date of pregnancy of mice was identified by checking for vaginal plug in the morning following the day of mating. If the vaginal plug was found, the mouse was considered to be pregnant for 0.5 days (E0.5). When the embryos reached E12.5 to E13.5, the pregnant mice were sacrificed, and the embryos were isolated from the mice inside tissue culture hood using sterile utensils. The embryos were placed in phosphate buffered saline (PBS). Their head and liver were removed. A portion of the head was used for genotyping to identify the genotype of each embryo. The body of each embryo was transferred to 1mL of 0.1% Trypsin-EDTA solution in a well of 12-well plate. Using sterile scissors, embryos were cut into small pieces. The 12-well plate was then placed in a 37° C. incubator for 10 minutes. Followed by vigorous pipetting of the embryos in Trypsin-EDTA solution until the embryos wholly dissolved into the solution. The 12-well plate was then placed in 37° C. incubator for 5 minutes. The homogenized solution was then transferred to 9 mL of Gibco's High Glucose Dulbecco's Modified Eagle's Medium (DMEM) supplemented with sodium bicarbonate (3.7 g/L), HEPES (6 g/L), 10% fetal bovine serum (FBS) and penicillin-streptomycin (100 units/mL). The isolated MEFs were considered to be at passage 0 (P0). P3 MEFs were used in experiments as they have optimal cellular responses to stimuli. […]
In the step of determining the cell's proliferation rate and optimal concentration, primary mouse embryonic fibroblasts (MEFs) at passage 3 were counted by using LUNA-II Automated Cell Counter. […] After 4-day and 8-day treatment, the cells were counted again using LUNA-II Automated Cell Counter. The population doubling level (PDL) which reflects the proliferation rate of cells was calculated by the formula: n=3.32×(logUCY−logI)+X, where n=the PDL number, UCY=the cell yield at that time point, I=the initial cell number, and X=the doubling level of the cells used to initiate the subculture being quantitated.

[2] = test system: skin of LMNA^G609G/G609G mice; assay: Histology study of mouse skin (hematoxylin and eosin staining); type: in vivo; details: CBD treated LMNA^G609G/G609G mice
Method: In the step of study the histology of mouse skin and liver, the mice were sacrificed by cervical dislocation under anesthesia by intraperitoneal (IP) injection of 100 mg/kg ketamine and 16 mg/kg xylazine in sterile water. Major organs, including skin, muscle, intestine, kidney, spleen, liver, lung, heart, aorta, were collected. Half of the tissues were snap-frozen in liquid nitrogen and stored at −80° C. for extraction of proteins and RNA. Another half of the tissues were fixed in 4% paraformaldehyde (PFA) in PBS and shook at 4° C. overnight. For paraffin wax sections, the fixed tissues were incubated in 70% ethanol and shook at 4° C. overnight. Followed by stepwise dehydration of tissues in 90%, 95%, 100%, and 100% ethanol for 1 hour each. Then the tissues were incubated in 50% xylene and 50% ethanol for 30 to 40 minutes and transferred to 100% xylene for 10 to 15 minutes. The tissues were then incubated in wax for 30 minutes and transferred to new wax for 3 times. Then the tissues were placed in the wax inside a vacuum chamber overnight. On the following day, the tissues were embedded into paraffin blocks and sectioned into slides with 6 μm in thickness. After the tissue sections were dried, they were incubated in xylene solution twice each for 5 minutes. […]

[3] = test system: Human mesenchymal stem cells (MSCs); assay: Senolytic effect in MSCs upon irradiation induced senescence (relative cell viability); type: cell-based; details: 24-hour treatment, normalized to non-irradiated control
Method: Human mesenchymal stem cells (MSCs) were counted by using LUNA-II Automated Cell Counter. 1.0×10^5 cells were seeded to each well of 6-well plate and cultured for 24 hours. The cells were divided into two groups: non-irradiated and irradiated group. The irradiated group received gamma irradiation by irradiator. 10 Gy was the dosage of irradiation used. 24 hours after the irradiation, the non-irradiated and irradiated group were treated with different concentration of chemical. After 24-hour treatment, the cells were counted again using LUNA-II Automated Cell Counter. The population doubling level (PDL) which reflects the proliferation rate of cells was calculated by the formula: n=3.32×(logUCY−logI)+X, where n=the PDL number, UCY=the cell yield at that time point, I=the initial cell number, and X=the doubling level of the cells used to initiate the subculture being quantitated.
The relative cell viability was calculated by normalizing each sample to non-irradiated control sample. […] As CBD selectively killed senescent MSCs while keeping proliferating MSCs unharmed, it was discovered to be a novel senolytic. Referring to FIG. 12b, Western blotting was carried to investigate the mechanism behind CBD's senolytic effect. […] While as proliferating and senescent MSCs responded differently in phosphorylated akt level.

For `C=C(C)[C@@H]1CCC(C)=C[C@H]1c1c(O)cc(CCCCC)cc1O` [CBD, Cannabidiol], the “effect on PDL” value ([1]; 10 μM CBD, 4 and 8 days of treatment) was “increased the PDL to the greatest extent”, the “effect on PDL (toxicity effect)” value ([1]; 50 μM CBD, 4 days) was “decrease in PDL” and the “optimal concentration (PDL)” value ([1]; MEFs, 4 and 8 days of treatment) was 10 µM. For the same compound, the “decrease of hair follicle density” value [2] was “rescued”, the “loss of skin adipose layer” value [2] was “rescued” and the “relative cell viability, irradiated senescent MSCs” value ([3]; 10 Gy gamma irradiation) was “significantly decrease the cell viability”. For the same compound, the “relative cell viability, non-irradiated control MSCs” value [3] was “significantly increase the cell viability”.
